Measured values from patent US9663530B2, “5-oxa-2-azabicyclo[2.2.2]OCTAN-4-yl and 5-oxa-2-azabicyclo[2.2.1]heptan-4-yl derivatives” (Hoffmann-La Roche Inc., priority 2014, dated 2017).

How the values were obtained:
mouse TAAR1 = mouse TAAR1 (Mus musculus (Mouse), UniProt Q923Y8); experiment: Radioligand binding assay on mouse TAAR1; settings: mouse TAAR1 (first value of the cell); membranes of HEK-293 cells stably expressing mouse TAAR1; read-out: Ki (μM) mouse/rat
Description: (§1) Construction of TAAR Expression Plasmids and Stably Transfected Cell Lines
(§2) For the construction of expression plasmids the coding sequences of human, rat and mouse TAAR 1 were amplified from genomic DNA essentially as described by Lindemann et al.. The Expand High Fidelity PCR System (Roche Diagnostics) was used with 1.5 mM Mg^2+ and purified PCR products were cloned into pCR2.1-TOPO cloning vector (Invitrogen) following the instructions of the manufacturer. PCR products were subcloned into the pIRESneo2 vector (BD Clontech, Palo Alto, Calif.), and expression vectors were sequence verified before introduction in cell lines.
(§3) HEK293 cells (ATCC # CRL-1573) were cultured essentially as described by Lindemann et al. (2005). For the generation of stably transfected cell lines HEK293 cells were transfected with the pIRESneo2 expression plasmids containing the TAAR coding sequences (described above) with Lipofectamine 2000 (Invitrogen) according to the instructions of the manufacturer, and 24 hrs post transfection the culture medium was supplemented with 1 mg/ml G418 (Sigma, Buchs, Switzerland). After a culture period of about 10 d clones were isolated, expanded and tested for responsiveness to trace amines (all compounds purchased from Sigma) with the cAMP Biotrak Enzyme immunoassay (EIA) System (Amersham) following the non-acetylation EIA procedure provided by the manufacturer.
Radioligand Binding Assay on Mouse TAAR1
(§4) Membrane Preparation and Radioligand Binding.
HEK-293 cells stably expressing mouse TAAR1 were maintained at 37° C. and 5% CO2 in DMEM high glucose medium, containing fetal calf serum (10%, heat inactivated for 30 min at 56° C.), penicillin/streptomycin (1%), and 375 μg/ml geneticin (Gibco). Cells were released from culture flasks using trypsin/EDTA, harvested, washed twice with ice-cold PBS (without Ca^2+and Mg^2+), pelleted at 1,000 rpm for 5 min at 4° C., frozen and stored at −80° C. Frozen pellets were suspended in 20 ml HEPES-NaOH (20 mM, pH 7.4) containing 10 mM EDTA and homogenized with a Polytron (PT 6000, Kinematica) at 14,000 rpm for 20 s. The homogenate was centrifuged at 48,000×g for 30 min at 4° C. Subsequently, the supernatant was removed and discarded, and the pellet resuspended in 20 ml HEPES-NaOH (20 mM, pH 7.4) containing 0.1 mM EDTA using the Polytron (20 s at 14,000 rpm). This procedure was repeated and the final pellet resuspended in HEPES-NaOH containing 0.1 mM EDTA and homogenized using the Polytron. Typically, aliquots of 2 ml membrane portions were stored at −80° C. With each new membrane batch the dissociation constant (Kd) was determined via a saturation curve. The TAAR1 radioligand ^3[H]-(S)-4-[(ethyl-phenyl-amino)-methyl]-4,5-dihydro-oxazol-2-ylamine (described in WO 2008/098857) was used at a concentration equal to the calculated Kd value, that was usually around 0.7 nM, resulting in the binding of approximately 0.5% of the radioligand and a specific binding representing approximately 70% of the total binding. Nonspecific binding was defined as the amount of ^3[H]-(S)-4-[(ethyl-phenyl-amino)-methyl]-4,5-dihydro-oxazol-2-ylamine bound in the presence of 10 μM unlabeled ligand. All compounds were tested at a broad range of concentrations ([…]) in duplicates. The test compounds (20 […]μl/well) were transferred into a 96 deep well plate (TreffLab), and 180 μl of HEPES-NaOH (20 mM, pH 7.4) containing MgCl2 (10 mM) and CaCl2 (2 mM) (binding buffer), 300 μl of the radioligand ^3[H]-(S)-4-[(ethyl-phenyl-amino)-methyl]-4,5-dihydro-oxazol-2-ylamine at a concentration of 3.3×Kd in nM and 500 μl of the membranes (resuspended at […]) added. The 96 deep well plates were incubated for 1 hr at 4° C. Incubations were terminated by rapid filtration through Unifilter-96 plates (Packard Instrument Company) and glass filters GF/C (Perkin Elmer) presoaked for 1 hr in polyethylenimine (0.3%) and washed 3 times with 1 ml of cold binding buffer. […]

rat TAAR1 = rat TAAR1 (Rattus norvegicus (Rat), UniProt Q923Y9); experiment: Radioligand binding assay on rat TAAR1; settings: rat TAAR1 (second value of the cell); membranes of HEK-293 cells stably expressing rat TAAR1; read-out: Ki (μM) mouse/rat
Sequence of rat TAAR1 (Q923Y9 whole entry): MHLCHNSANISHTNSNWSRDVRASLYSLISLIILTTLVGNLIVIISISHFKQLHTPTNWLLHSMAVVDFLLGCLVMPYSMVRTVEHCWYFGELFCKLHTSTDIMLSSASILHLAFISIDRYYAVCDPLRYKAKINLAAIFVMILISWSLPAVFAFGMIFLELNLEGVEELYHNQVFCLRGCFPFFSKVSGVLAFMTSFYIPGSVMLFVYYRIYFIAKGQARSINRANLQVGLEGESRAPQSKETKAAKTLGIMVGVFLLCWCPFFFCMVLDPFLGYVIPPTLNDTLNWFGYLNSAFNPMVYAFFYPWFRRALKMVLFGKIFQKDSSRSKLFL
Description: as §1, §2, §3
Radioligand Binding Assay on Rat TAAR1
as §4
HEK-293 cells stably expressing rat TAAR1 were maintained at 37° C. and 5% CO2 in DMEM high glucose medium, containing fetal calf serum (10%, heat inactivated for 30 min at 56° C.), penicillin/streptomycin (1%), and 375 μg/ml geneticin (Gibco). Cells were released from culture flasks using trypsin/EDTA, harvested, washed twice with ice-cold PBS (without Ca^2+ and Mg^2+), pelleted at 1,000 rpm for 5 min at 4° C., frozen and stored at −80° C. Frozen pellets were suspended in 20 ml HEPES-NaOH (20 mM, pH 7.4) containing 10 mM EDTA and homogenized with a Polytron (PT 6000, Kinematica) at 14,000 rpm for 20 s. The homogenate was centrifuged at 48,000×g for 30 min at 4° C. Subsequently, the supernatant was removed and discarded, and the pellet resuspended in 20 ml HEPES-NaOH (20 mM, pH 7.4) containing 0.1 mM EDTA using the Polytron (20 s at 14,000 rpm). This procedure was repeated and the final pellet resuspended in HEPES-NaOH containing 0.1 mM EDTA and homogenized using the Polytron. Typically, aliquots of 2 ml membrane portions were stored at −80° C. With each new membrane batch the dissociation constant (Kd) was determined via a saturation curve. […] Nonspecific binding was defined as the amount of ^3[H]-(S)-4-[(ethyl-phenyl-amino)-methyl]-4,5-dihydro-oxazol-2-ylamine bound in the presence of 10 μM unlabeled ligand. All compounds were tested at a broad range of concentrations ([…]) in duplicates. The test compounds (20 […]μl/well) were transferred into a 96 deep well plate (TreffLab), and 180 μl of HEPES-NaOH (20 mM, pH 7.4) containing MgCl2 (10 mM) and CaCl2 (2 mM) (binding buffer), 300 μl of the radioligand ^3[H]-(S)-4-[(ethyl-phenyl-amino)-methyl]-4,5-dihydro-oxazol-2-ylamine at a concentration of 3.3×Kd in nM and 500 μl of the membranes (resuspended at 50 μg protein per ml) added. The 96 deep well plates were incubated for 1 hr at 4° C. Incubations were terminated by rapid filtration through Unifilter-96 plates (Packard Instrument Company) and glass filters GF/C (Perkin Elmer) presoaked for 1 hr in polyethylenimine (0.3%) and washed 3 times with 1 ml of cold binding buffer. After addition of 45 μl of Microscint 40 (PerkinElmer) the Unifilter-96 plate was sealed and after 1 hr the ratioactivity counted using a TopCount Microplate Scintillation Counter (Packard Instrument Company).

Sequence of mouse TAAR1 (Q923Y8 whole entry): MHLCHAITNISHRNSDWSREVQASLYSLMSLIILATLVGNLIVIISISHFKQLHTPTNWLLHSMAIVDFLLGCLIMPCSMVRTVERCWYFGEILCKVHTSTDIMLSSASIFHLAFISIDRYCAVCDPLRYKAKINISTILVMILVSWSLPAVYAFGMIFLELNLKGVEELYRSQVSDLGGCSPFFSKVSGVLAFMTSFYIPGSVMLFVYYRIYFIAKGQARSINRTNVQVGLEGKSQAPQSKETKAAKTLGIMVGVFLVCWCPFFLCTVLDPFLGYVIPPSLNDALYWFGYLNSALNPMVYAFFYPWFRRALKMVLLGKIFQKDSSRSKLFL

Compound	Ki (mouse TAAR1) [µM]	Ki (rat TAAR1) [µM]
CC(C)c1cc(C(=O)Nc2ccc(C[C@]34CN[C@H](CO3)C4)cc2)[nH]n1 [Example 38, 3-Isopropyl-N-[4-[[(1S,4S)-5-oxa-2-azabicyclo[2.2.1]heptan-4-yl]methyl]phenyl]-1H-pyrazole-5-carboxamide]	10.1	0.441
O=C(Nc1ccc(C[C@]23CN[C@H](CO2)C3)cc1)c1ccc(OCC2CC2)cc1 [Example 25, 4-(Cyclopropylmethoxy)-N-[4-[[(1S,4S)-5-oxa-2-azabicyclo[2.2.1]heptan-4-yl]methyl]phenyl]benzamide]	0.168	0.0175
O=C(Nc1ccc(C[C@]23CN[C@H](CO2)C3)cc1)c1[nH]nc(C2CC2)c1Cl [Example 29, 4-Chloro-3-cyclopropyl-N-[4-[[(1 S,4S)-5-oxa-2-azabicyclo[2.2.1]heptan-4-yl]methyl]phenyl]-1H-pyrazole-5-carboxamide]	0.476	0.633
FC(F)(F)c1cnc(Nc2ccc(C[C@]34CN[C@H](CO3)C4)cc2)nc1 [Example 33, N-[4-[[(1S,4S)-5-Oxa-2-azabicyclo[2.2.1]heptan-4-yl]methyl]phenyl]-5-(trifluoromethyl)pyrimidin-2-amine]	5.8	0.881
O=C(Nc1ccc(C[C@]23CN[C@H](CO2)C3)cc1)c1ccc(Cl)cc1 [Example 15, 4-Chloro-N-[4-[[(1S,4S)-5-oxa-2-azabicyclo[2.2.1]heptan-4-yl]methyl]phenyl]benzamide]	0.0853	0.0505
O=C(Nc1ccc(C[C@]23CN[C@H](CO2)C3)cc1)Nc1ccccc1Cl [Example 9, 1-(2-Chlorophenyl)-3-[4-[[(1S,4S)-5-oxa-2-azabicyclo[2.2.1]heptan-4-yl]methyl]phenyl]urea]	1.63	0.53
FC(F)(F)c1ccc(Nc2ccc(C[C@]34CN[C@H](CO3)C4)cc2)nc1 [Example 31, N-[4-[[(1S,4S)-5-Oxa-2-azabicyclo[2.2.1]heptan-4-yl]methyl]phenyl]-5-(trifluoromethyl)pyridin-2-amine]	0.946	0.163
CCCc1n[nH]c(C(=O)Nc2ccc(C[C@]34CN[C@H](CO3)C4)cc2)c1Cl [Example 16, 4-Chloro-N-[4-[[(1 S,4S)-5-oxa-2-azabicyclo[2.2.1]heptan-4-yl]methyl]phenyl]-3-propyl-1H-pyrazole-5-carboxamide]	0.476	0.277
CCCc1n[nH]c(C(=O)Nc2ccc(C[C@@]34CN[C@@H](CO3)C4)cc2)c1Cl [Example 41, 4-Chloro-N-[4-[[(1R,4R)-5-oxa-2-azabicyclo[2.2.1]heptan-4-yl]methyl]phenyl]-3-propyl-1H-pyrazole-5-carboxamide]	0.0183	0.066

Now those with a lower Ki (mouse TAAR1), led by results:

Ki (mouse TAAR1) [µM]	Ki (rat TAAR1) [µM]	Compound
0.0054	0.97	O=C(Nc1ccc([C@@]23CN[C@@H](CO2)C3)cc1)c1ccc(Cl)cc1 [Example 54, 4-Chloro-N-[4-[(1R,4S)-5-oxa-2-azabicyclo[2.2.1]heptan-4-yl]phenyl]benzamide]
0.0022	0.0551	O=C(Nc1ccc(C[C@@]23CN[C@@H](CO2)C3)cc1)c1cccc(Cl)c1 [Example 39, 3-Chloro-N-[4-[[(1R,4R)-5-oxa-2-azabicyclo[2.2.1]heptan-4-yl]methyl]phenyl]benzamide]
0.0046	0.0108	O=C(Nc1ccc(C[C@@]23CN[C@@H](CO2)C3)cc1)Nc1cccc(C(F)(F)F)c1 [Example 44, 1-[4-[[(1R,4R)-5-Oxa-2-azabicyclo[2.2.1]heptan-4-yl]methyl]phenyl]-3-[3-(trifluoromethyl)phenyl]urea]
0.0137	0.0263	O=C(Nc1ccc(C(F)(F)F)cc1)Nc1ccc(C23CCC(CO2)NC3)cc1 (racemic) [Example 67, (RS)-1-[4-(5-Oxa-2-azabicyclo[2.2.2]octan-4-yl)phenyl]-3-[4-(trifluoromethyl)phenyl]urea]
0.0119	0.0681	O=C(Nc1ccc(C23CCC(CO2)NC3)cc1)Nc1cccc(Cl)c1 (racemic) [Example 68, (RS)-1-(3-Chlorophenyl)-3-[4-(5-oxa-2-azabicyclo[2.2.2]octan-4-yl)phenyl]urea]
0.0137	0.0375	O=C(Nc1ccc(Cl)cc1)Nc1ccc(C[C@@]23CN[C@@H](CO2)C3)cc1 [Example 23, 1-(4-Chlorophenyl)-3-[4-[[(1R,4R)-5-oxa-2-azabicyclo[2.2.1]heptan-4-yl]methyl]phenyl]urea]
0.0028	0.662	O=C(Nc1ccc(C23CCC(CO2)NC3)cc1)c1ccc(Cl)cc1 (racemic) [Example 5, (RS)-4-Chloro-N-[4-(5-oxa-2-azabicyclo[2.2.2]octan-4-yl)phenyl]benzamide]
0.005	0.0465	O=C(Nc1ccc(Cl)cc1)Nc1ccc(C23CCC(CO2)NC3)cc1 (racemic) [Example 66, (RS)-1-(4-Chlorophenyl)-3-[4-(5-oxa-2-azabicyclo[2.2.2]octan-4-yl)phenyl]urea]
0.0104	0.0104	O=C(Nc1ccc(C[C@@]23CN[C@@H](CO2)C3)cc1)c1ccc(OCC(F)(F)F)nc1 [Example 47, N-[4-[[(1R,4R)-5-Oxa-2-azabicyclo[2.2.1]heptan-4-yl]methyl]phenyl]-6-(2,2,2-trifluoroethoxy)pyridine-3-carboxamide]
